Test [1] addresses T1, non-lysosomal-β-glucocerebrosidase (Homo sapiens, UniProt Q9HCG7).
T1 construct: whole cell extracts of MCF7(a human breast carcinoma cell line) was used as the source of the enzyme; endogenous in cells; host or cells: MCF7 whole cell extract
T1 sequence (Q9HCG7 1-927): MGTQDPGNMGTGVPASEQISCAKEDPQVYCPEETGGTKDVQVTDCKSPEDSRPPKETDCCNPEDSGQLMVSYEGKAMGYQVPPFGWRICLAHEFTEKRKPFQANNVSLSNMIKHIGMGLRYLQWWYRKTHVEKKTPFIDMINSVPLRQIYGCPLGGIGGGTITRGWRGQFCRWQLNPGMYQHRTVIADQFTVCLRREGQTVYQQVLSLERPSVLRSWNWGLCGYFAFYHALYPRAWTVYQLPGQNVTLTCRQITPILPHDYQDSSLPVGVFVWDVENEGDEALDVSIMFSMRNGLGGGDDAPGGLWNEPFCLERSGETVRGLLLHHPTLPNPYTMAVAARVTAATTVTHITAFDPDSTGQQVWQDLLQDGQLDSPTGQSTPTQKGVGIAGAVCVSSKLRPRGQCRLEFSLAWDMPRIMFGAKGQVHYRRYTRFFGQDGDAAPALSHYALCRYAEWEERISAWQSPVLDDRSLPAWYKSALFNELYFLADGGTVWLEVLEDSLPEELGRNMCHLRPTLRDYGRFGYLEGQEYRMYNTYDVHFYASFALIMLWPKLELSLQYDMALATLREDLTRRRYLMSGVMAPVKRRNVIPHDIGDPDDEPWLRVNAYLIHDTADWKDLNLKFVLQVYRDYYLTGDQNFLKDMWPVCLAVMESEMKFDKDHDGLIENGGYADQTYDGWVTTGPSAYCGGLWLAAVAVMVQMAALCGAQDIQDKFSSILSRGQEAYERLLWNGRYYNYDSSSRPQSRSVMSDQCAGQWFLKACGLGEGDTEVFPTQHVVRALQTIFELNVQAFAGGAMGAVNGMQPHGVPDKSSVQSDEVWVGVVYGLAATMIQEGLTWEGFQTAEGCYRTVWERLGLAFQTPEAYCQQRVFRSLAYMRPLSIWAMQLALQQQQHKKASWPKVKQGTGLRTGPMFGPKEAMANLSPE
Briefly: Inhibition of non-lysosomal-β-glucocerebrosidase. The format is biochemical. The following applies: whole cell extracts of MCF7 as enzyme source; 4-MU β-glucoside substrate; pH 5.8.

The target in test [2] is T2, human recombinant GCS expressed in insect cells (Homo sapiens, UniProt Q16739).
T2 construct: made in house; host or cells: insect cells
T2 sequence (Q16739 1-394): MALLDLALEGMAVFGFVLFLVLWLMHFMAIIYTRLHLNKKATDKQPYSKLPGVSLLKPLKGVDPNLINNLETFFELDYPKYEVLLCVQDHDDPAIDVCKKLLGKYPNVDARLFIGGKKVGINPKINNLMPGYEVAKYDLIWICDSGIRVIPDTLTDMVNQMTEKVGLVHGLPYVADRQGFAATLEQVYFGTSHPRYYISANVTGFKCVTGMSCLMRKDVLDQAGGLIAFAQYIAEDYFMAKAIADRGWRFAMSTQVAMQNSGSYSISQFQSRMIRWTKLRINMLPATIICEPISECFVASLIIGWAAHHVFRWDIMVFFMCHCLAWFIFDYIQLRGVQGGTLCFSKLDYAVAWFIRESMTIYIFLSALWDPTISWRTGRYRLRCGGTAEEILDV
Briefly: Inhibition of GCS. The format is biochemical.

The target of a further test is T3, human GCS (Homo sapiens, UniProt Q16739).
T3 construct: Human mammary epithelial cells (MCF-7) were cultured for 5-7 days, with varying concentrations of a compound of the invention; endogenous in cells; host or cells: MCF-7
T3 sequence (Q16739 1-394): T2 sequence (Q16739 1-394)
Briefly: Cell-based IC50 for GCS inhibition by measuring glucosylceramide (GlcCer) depletion. The following applies: MCF-7 cells cultured for 5-7 days; GlcCer quantified by HPTLC; read-out: Inhibition of GCS Cellular-based (IC50 μM).

The mark [3] stands for this setting: human recombinant GCS expressed in insect cells, read-out: Inhibition of GCS (IC50).

For orientation: IC50 means the concentration that gives 50% inhibition.

Like-named read-outs stand apart in the source and are kept apart here.

Consider `COc1cc(OCc2ccccc2)ccc1CN1C[C@H](O)[C@@H](O)[C@H](O)[C@@H]1CO` [Example 1, 3,4,5-Piperidinetriol, 2-(hydroxymethyl)-1-[[2-methoxy-4-(phenylmethoxy)phenyl]methyl]-, (2S,3R,4R,5S)], for which the 50% inhibitory concentration (IC50) in test [1] came out at 110 nM; in test [2] (setting [3]) it was 2700 nM.

Turning to `CN(C)c1ccc(CN2C[C@H](O)[C@@H](O)[C@H](O)[C@@H]2CO)c(F)c1C#N` [Example 3, 3,4,5-Piperidinetriol, 1-[(3-cyano-4-dimethylamino-2-fluorophenyl)methyl]-2-(hydroxymethyl)-, (2S,3R,4R,5S)], the concentration for half-maximal inhibition (IC50) is 750 nM in test [1] and 1800 nM in test [2] (setting [3]).

Take `O=C(NCc1ccc(F)cc1)c1ccc(CN2C[C@H](O)[C@@H](O)[C@H](O)[C@@H]2CO)cc1` [Example 6, Benzamide, N-[(4-fluorophenyl)methyl]-4-[[(2S,3R,4R,5S)-3,4,5-trihydroxy-2-(hydroxymethyl)-1-piperldinyl]methyl]-,]: the IC50 is 69 nM in test [1] and 670 nM in test [2] (setting [3]).

With `CC(NC(=O)c1ccc(CN2C[C@H](O)[C@@H](O)[C@H](O)[C@@H]2CO)cc1)c1ccccc1` (stereo partly drawn) [Example 7, Benzamide, N-[1-phenylethyl]4-[[(2S,3R,4R,5S)-3,4,5-trihydroxy-2-(hydroxymethyl)-1-piperidinyl]-methyl]-,], the concentration for half-maximal inhibition (IC50) in test [1] is 84 nM; in test [2] (setting [3]) it was 280 nM.

For the molecule `C[C@@H](NC(=O)c1ccc(CN2C[C@H](O)[C@@H](O)[C@H](O)[C@@H]2CO)cc1)c1ccc(F)cc1` [Example 8, Benzamide, N-[1-(R)-(4-fluorophenyl)ethyl]4-[[(2S,3R,4R,5S)-3,4,5-trihydroxy-2-(hydroxymethyl)-1-piperidinyl]methyl]-,], the 50% inhibitory concentration (IC50) in test [1] was determined as 42 nM; in test [2] (setting [3]) it was 490 nM.

For the molecule `OC[C@H]1[C@@H](O)[C@H](O)[C@@H](O)CN1Cc1ccc(OCc2ccccc2)c(Cl)c1` [Example 10, 3,4,5-Piperidinetriol, 2-(hydroxymethyl)-1-[[3-chloro-4-(phenylmethoxy)phenyl]methyl]-, (2S,3R,4R,5S)], the IC50 is 5 nM in test [1] and 320 nM in test [2] (setting [3]).

As for `OC[C@H]1[C@@H](O)[C@H](O)[C@@H](O)CN1Cc1ccc(OCc2ccccc2)cc1` [Example 11, 3,4,5-Piperidinetriol, 2-(hydroxymethyl)-1-[[4-(phenylmethoxy)phenyl]methyl]-, (2S,3R,4R,5S)], the half-inhibitory concentration (IC50) was 3 nM in test [1], less than 0.01 µM on human GCS and 210 nM in test [2] (setting [3]).

Consider `OC[C@H]1[C@@H](O)[C@H](O)[C@@H](O)CN1Cc1ccc(/C=C/c2ccccc2)cc1` [Example 13, 3,4,5-Piperidinetriol, 1-[(4-trans-styrylphenyl)methyl]-2-(hydroxymethyl)-, (2S,3R,4R,5S)], for which the results for the 50% inhibitory concentration (IC50) in test [1] and in test [2] (setting [3]) were 2 nM and 290 nM, respectively.

Consider `O=C(c1ccc(CN2C[C@H](O)[C@@H](O)[C@H](O)[C@@H]2CO)cc1)N1CCCc2ccccc21` [Example 14], for which the IC50 in test [1] was 19 nM; in test [2] (setting [3]) it was 1400 nM.

With `CCN(CC)c1ccc(CN2C[C@H](O)[C@@H](O)[C@H](O)[C@@H]2CO)c(F)c1C#N` [Example 18, 3,4,5-Piperidinetriol, 2-(hydroxymethyl)-1-[(3-cyano-4-(diethylamino)-2-fluorophenyl)-methyl]-, (2S,3R,4R,5S)], the IC50 in test [1] turned out to be 120 nM; in test [2] (setting [3]), 550 nM.

For `OC[C@H]1[C@@H](O)[C@H](O)[C@@H](O)CN1Cc1ccc(Oc2ccccc2)cc1` [Example 19, 3,4,5-Piperidinetriol, 2-(hydroxymethyl)-1-[(4-phenoxyphenyl)methyl]-, (2S,3R,4R,5S)], the 50% inhibitory concentration (IC50) in test [1] was determined as 4 nM; in test [2] (setting [3]) it was 410 nM.

`OC[C@H]1[C@@H](O)[C@H](O)[C@@H](O)CN1Cc1ccc2c(c1)OCCO2` [Example 20, 3,4,5-Piperidinetriol, 1-[(3,4-ethylenedioxyphenyl)methyl]-2-(hydroxymethyl)-, (2S,3R,4R,5S)]: the half-maximal inhibitory concentration (IC50) in test [1] was found to be 55 nM; in test [2] (setting [3]) it was 2500 nM.

Consider `O=S(=O)(Nc1ccc(CN2C[C@H](O)[C@@H](O)[C@H](O)[C@@H]2CO)cc1)c1ccccc1` [Example 22, Benzenesulfonamide, N-[4-[[(2S,3S,4R,5S)-3,4,5-trihydroxy-2-(hydroxymethyl)-1-piperidinyl]methyl]-phenyl]-,], for which the concentration for half-maximal inhibition (IC50) in test [1] and in test [2] was 910 nM throughout.

For the origin of these results see patent US7985760B2, “Piperidinetriol derivatives as inhibitors of glycosyceramid synthase” (Actelion Pharmaceuticals Ltd., priority 2002, dated 2011).
